Assay [1] concerns the target T1, Vascular endothelial growth factor receptor 2 (Homo sapiens, UniProt P35968).
Assay [2] concerns the target Tyrosine-protein kinase Lck (Homo sapiens, UniProt P06239). The assay can be described thus: Inhibition of Lck by HTRF assay. (Time-resolved FRET reads energy transfer from a long-lived donor to a nearby acceptor.)
The target of assay [3] is Vascular endothelial growth factor receptor 3 (Homo sapiens, UniProt P35916). The assay can be described thus: Inhibition of FLT4 by HTRF assay.
Chain of Vascular endothelial growth factor receptor 3 (P35916 whole entry): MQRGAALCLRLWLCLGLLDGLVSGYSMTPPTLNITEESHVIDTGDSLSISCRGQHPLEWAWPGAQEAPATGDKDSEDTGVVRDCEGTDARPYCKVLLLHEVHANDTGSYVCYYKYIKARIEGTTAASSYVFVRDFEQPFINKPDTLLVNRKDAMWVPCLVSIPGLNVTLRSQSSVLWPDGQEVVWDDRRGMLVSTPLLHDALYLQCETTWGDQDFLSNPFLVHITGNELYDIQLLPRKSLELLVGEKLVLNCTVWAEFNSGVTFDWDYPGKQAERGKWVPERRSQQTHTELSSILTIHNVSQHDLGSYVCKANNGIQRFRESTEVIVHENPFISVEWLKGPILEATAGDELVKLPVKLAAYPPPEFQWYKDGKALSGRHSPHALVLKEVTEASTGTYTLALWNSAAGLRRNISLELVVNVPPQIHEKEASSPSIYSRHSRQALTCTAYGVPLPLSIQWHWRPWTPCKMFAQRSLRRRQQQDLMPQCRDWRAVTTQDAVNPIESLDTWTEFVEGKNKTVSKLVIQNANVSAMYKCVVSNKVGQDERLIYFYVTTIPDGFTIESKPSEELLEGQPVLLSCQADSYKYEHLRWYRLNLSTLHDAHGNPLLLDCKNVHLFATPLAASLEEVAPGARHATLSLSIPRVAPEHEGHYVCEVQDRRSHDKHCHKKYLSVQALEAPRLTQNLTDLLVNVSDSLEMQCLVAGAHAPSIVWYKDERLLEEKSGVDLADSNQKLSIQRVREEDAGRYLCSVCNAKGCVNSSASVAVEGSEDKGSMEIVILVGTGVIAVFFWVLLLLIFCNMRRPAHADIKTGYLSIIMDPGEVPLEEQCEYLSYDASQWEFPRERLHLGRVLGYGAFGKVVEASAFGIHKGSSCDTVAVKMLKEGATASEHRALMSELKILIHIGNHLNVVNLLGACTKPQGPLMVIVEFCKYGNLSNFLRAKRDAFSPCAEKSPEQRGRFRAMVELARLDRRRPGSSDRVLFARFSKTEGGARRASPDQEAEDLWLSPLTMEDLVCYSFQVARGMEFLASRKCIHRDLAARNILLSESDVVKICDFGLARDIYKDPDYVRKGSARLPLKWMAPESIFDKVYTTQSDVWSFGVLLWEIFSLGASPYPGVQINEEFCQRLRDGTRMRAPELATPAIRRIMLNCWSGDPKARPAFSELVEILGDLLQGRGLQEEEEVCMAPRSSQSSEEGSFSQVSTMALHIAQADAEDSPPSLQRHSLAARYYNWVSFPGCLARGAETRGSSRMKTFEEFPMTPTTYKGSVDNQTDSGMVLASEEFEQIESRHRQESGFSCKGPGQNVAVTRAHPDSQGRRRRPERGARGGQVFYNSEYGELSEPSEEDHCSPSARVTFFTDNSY
The target of assay [4] is Hepatocyte growth factor receptor (Homo sapiens, UniProt P08581). The assay can be described thus: Inhibition of cMet by HTRF assay.
Assay [5] addresses Vascular endothelial growth factor receptor 1 (Homo sapiens, UniProt P17948). Briefly: Inhibition of FLT1 by HTRF assay.
Assay [6] deals with Mast/stem cell growth factor receptor Kit (Homo sapiens, UniProt P10721). Briefly: Inhibition of cKit by HTRF assay.
Chain of Mast/stem cell growth factor receptor Kit (P10721 whole entry): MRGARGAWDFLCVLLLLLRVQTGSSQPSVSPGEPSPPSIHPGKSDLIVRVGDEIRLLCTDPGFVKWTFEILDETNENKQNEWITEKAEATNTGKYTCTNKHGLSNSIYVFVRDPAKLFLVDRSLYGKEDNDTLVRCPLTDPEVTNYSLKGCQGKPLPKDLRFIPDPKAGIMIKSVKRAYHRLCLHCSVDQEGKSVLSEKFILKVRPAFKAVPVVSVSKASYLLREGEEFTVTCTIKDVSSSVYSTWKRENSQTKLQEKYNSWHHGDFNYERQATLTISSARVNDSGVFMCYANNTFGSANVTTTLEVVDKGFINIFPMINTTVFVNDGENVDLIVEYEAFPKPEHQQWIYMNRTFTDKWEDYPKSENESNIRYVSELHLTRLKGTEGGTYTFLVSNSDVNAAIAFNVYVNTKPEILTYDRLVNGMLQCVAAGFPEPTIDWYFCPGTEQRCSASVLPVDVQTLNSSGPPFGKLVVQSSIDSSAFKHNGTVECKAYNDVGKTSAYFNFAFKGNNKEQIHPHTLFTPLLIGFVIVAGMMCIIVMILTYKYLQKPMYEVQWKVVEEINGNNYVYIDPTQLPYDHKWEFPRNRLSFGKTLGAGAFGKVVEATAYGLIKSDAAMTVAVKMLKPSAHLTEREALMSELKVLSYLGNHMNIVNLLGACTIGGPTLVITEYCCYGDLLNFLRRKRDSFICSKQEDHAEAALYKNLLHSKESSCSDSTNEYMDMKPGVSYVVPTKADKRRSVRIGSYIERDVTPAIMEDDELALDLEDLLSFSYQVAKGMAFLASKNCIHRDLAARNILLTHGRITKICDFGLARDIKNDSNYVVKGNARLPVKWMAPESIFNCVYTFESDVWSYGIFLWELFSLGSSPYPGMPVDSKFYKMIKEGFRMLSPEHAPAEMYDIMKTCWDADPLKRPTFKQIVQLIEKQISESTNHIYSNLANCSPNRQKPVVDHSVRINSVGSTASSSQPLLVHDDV
In assay [7] the target is Platelet-derived growth factor receptor (Homo sapiens, UniProt P09619+P16234). The assay can be described thus: Inhibition of PDGFR by HTRF assay. The assay is classed as protein-complex assay.
The target in assay [8] is Fibroblast growth factor receptor (Homo sapiens, UniProt P22607+P11362+P22455+P21802). The assay can be described thus: Inhibition of FGFR by HTRF assay. It counts as protein assay.
The next assay concerns the target Angiopoietin-1 receptor (Homo sapiens, UniProt Q02763). Briefly: Inhibition of Tie2 by HTRF assay.
For assay [9], the target named is T1, Vascular endothelial growth factor receptor 2. Briefly: Inhibition of VEGF-induced human KDR phosphorylation transfected in NIH3T3 cells by ELISA. It counts as functional, cell-based. In general terms: In an ELISA, binding on a coated surface is turned into a signal by an enzyme label.
For another assay, the system named is Mus musculus. The assay can be described thus: Activity against estradiol-induced uterine edema in orally dosed murine. The assay is classed as functional. The note with it: po.

The IC50 is the concentration at which inhibition is half-maximal. Lower therefore signals greater potency. Usually ED50 stands for the midpoint of the dose-response relation. Low readings indicate greater potency, high ones weaker potency.

T1 sequence (P35968 whole entry): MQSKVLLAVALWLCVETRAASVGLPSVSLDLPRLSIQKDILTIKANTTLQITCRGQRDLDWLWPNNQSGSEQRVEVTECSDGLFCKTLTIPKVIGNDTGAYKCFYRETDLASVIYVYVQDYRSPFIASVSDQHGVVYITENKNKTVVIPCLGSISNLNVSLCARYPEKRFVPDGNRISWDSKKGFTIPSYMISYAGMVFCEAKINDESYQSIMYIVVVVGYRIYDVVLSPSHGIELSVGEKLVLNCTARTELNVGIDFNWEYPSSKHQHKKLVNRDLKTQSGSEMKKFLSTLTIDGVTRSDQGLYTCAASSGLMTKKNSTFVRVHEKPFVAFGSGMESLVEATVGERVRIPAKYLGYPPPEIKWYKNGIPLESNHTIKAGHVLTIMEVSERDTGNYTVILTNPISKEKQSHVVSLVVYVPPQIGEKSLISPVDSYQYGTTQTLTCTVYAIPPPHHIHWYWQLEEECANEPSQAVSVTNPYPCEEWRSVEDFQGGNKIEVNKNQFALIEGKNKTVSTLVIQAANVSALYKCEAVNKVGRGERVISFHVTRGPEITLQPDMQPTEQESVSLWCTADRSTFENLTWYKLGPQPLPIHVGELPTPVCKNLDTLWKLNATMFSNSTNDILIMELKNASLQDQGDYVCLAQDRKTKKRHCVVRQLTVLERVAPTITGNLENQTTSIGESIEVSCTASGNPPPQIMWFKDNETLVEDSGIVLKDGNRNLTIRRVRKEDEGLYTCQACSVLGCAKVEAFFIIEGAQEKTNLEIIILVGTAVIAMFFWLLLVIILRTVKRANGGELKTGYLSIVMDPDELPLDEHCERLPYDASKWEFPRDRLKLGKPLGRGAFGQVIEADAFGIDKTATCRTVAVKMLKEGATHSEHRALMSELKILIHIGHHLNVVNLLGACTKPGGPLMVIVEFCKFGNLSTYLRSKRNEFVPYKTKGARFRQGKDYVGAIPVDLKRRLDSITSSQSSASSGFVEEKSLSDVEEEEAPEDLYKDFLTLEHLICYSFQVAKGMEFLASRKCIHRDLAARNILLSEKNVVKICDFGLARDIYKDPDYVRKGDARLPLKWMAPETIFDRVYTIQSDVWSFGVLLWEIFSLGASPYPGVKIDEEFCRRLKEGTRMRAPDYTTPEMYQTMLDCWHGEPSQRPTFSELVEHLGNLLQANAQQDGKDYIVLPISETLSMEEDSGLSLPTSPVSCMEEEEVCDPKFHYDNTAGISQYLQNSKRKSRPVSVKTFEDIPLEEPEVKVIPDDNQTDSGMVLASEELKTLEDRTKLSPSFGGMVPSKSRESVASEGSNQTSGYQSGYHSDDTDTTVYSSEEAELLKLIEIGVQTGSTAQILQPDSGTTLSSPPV
Chain of Tyrosine-protein kinase Lck (P06239 whole entry): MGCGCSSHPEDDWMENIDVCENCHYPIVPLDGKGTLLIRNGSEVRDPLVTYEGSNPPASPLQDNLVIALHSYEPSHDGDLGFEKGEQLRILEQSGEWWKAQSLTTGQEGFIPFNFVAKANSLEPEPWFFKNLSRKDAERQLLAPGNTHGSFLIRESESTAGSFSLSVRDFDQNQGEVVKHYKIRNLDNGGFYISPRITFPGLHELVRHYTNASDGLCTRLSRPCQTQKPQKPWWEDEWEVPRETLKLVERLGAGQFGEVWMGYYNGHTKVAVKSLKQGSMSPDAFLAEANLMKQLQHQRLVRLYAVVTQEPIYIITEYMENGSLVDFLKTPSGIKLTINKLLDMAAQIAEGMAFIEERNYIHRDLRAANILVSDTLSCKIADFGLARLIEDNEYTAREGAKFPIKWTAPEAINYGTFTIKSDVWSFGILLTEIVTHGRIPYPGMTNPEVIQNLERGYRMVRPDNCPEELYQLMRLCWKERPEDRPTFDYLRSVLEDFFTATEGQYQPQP

Take `CC(C)N1CCN(Cc2ccc3c(c2)-c2n[nH]c(-c4ccsc4)c2C3)CC1`: the IC50 in assay [1] amounted to 0.19 µM.
For `CN1CCN(Cc2ccc3c(c2)-c2[nH]nc(-c4ccsc4)c2C3)CC1`, the IC50 is over 50 µM in [2]; 0.18 µM in assay [1]; 1.57 µM in assay [3]; over 50 µM in [4]; 0.97 µM in assay [5]; 0.145 µM in assay [6]. For the same compound, the IC50 was over 50 µM in assay [7], over 50 µM in assay [8] and 47.8 µM against Angiopoietin-1 receptor.
`CN1CCN(C(=O)c2ccc3c(c2)-c2[nH]nc(-c4ccsc4)c2C3)CC1` came in with an IC50 in assay [1] of 4.08 µM.
`c1cn(Cc2ccc3c(c2)-c2[nH]nc(-c4ccsc4)c2C3)cn1`: the 50% inhibitory concentration (IC50) in assay [2] was 21.1 µM; in assay [1], 0.147 µM; in assay [3], 0.169 µM; in assay [4] it was over 50 µM; in assay [5] it was 0.601 µM; in [6] it was 0.103 µM. For the same compound, the values for the IC50 (in [9]; in [8]; against Angiopoietin-1 receptor) were 0.293 µM, 34.355 µM and 17.6 µM, respectively. This compound registered a 50% effective dose (ED50) in the assay on Mus musculus of 20 mg/kg.
`O=CN1CCN(Cc2ccc3c(c2)-c2n[nH]c(-c4ccsc4)c2C3)CC1` returned an IC50 in assay [1] of 0.665 µM.
On the same count and under the same terms, for `CN1CCN(CCc2ccc3c(c2)-c2n[nH]c(-c4ccsc4)c2C3)CC1` the value was 0.143 µM; for `Cc1ccsc1-c1[nH]nc2c1Cc1cc(CN3CCN(C)CC3)ccc1-2`, over 50 µM; for `CN1CCN(c2ccc3c(c2)Cc2c(-c4cccs4)n[nH]c2-3)CC1`, 1000 µM.
Still for that read-out and setting: under `c1ncn(Cc2ccc3c(c2)-c2n[nH]c(-c4ccsc4)c2C3)n1` stands 0.108 µM.
On the same count and under the same terms, under `CCN(CC)Cc1ccc2c(c1)-c1n[nH]c(-c3ccsc3)c1C2` stands 0.824 µM; under `c1cn(Cc2ccc3c(c2)-c2[nH]nc(-c4ccsc4)c2C3)nn1`, 0.19 µM; under `CN1CCN(Cc2ccc3c(c2)Cc2c-3n[nH]c2-c2cc3ccccc3s2)CC1`, over 50 µM.

Values taken from ChEMBL document CHEMBL1145317, “Hit-to-lead optimization of 1,4-dihydroindeno[1,2-c]pyrazoles as a novel class of KDR kinase inhibitors” (Bioorg Med Chem Lett, 2006).
